Drawing on patent US11566022B2, “3-(5-methoxy-1-oxoisoindolin-2-yl)piperidine-2,6-dione derivatives and uses thereof” (NOVARTIS AG, priority 2019, dated 2023), this text covers Dmax, remaining activity and DC50 for 38 compounds.

In this test the target is HiBit-WIZ fusion protein (Homo sapiens, UniProt O95785+Q96SW2). Nature of the test: Quantification of WIZ protein levels in HiBit tag fusion protein assay (WIZ HiBit assay in 293T cells). The format is cell-based. Further details: Dmax: dose or concentration left out as unconfirmed. As to conditions: for Dmax / remaining activity at up to 25 µM: HEK-293T, 293T cells; for Dmax: 100 minus Amax, read-out: % degradation of WIZ (100-Amax); for remaining activity at up to 25 µM: DMSO-normalized, curve-fitted percentage of WIZ-HiBit remaining at 25 uM, read-out: WIZ Amax; for DC50: WIZ HiBit assay in 293T cells, 10-point, 5-fold dose response, highest concentration 25 μM, about 18 hours, read-out: WIZ AC50.
Sequence of HiBit-WIZ fusion protein (O95785 whole entry, the tested form may be a part): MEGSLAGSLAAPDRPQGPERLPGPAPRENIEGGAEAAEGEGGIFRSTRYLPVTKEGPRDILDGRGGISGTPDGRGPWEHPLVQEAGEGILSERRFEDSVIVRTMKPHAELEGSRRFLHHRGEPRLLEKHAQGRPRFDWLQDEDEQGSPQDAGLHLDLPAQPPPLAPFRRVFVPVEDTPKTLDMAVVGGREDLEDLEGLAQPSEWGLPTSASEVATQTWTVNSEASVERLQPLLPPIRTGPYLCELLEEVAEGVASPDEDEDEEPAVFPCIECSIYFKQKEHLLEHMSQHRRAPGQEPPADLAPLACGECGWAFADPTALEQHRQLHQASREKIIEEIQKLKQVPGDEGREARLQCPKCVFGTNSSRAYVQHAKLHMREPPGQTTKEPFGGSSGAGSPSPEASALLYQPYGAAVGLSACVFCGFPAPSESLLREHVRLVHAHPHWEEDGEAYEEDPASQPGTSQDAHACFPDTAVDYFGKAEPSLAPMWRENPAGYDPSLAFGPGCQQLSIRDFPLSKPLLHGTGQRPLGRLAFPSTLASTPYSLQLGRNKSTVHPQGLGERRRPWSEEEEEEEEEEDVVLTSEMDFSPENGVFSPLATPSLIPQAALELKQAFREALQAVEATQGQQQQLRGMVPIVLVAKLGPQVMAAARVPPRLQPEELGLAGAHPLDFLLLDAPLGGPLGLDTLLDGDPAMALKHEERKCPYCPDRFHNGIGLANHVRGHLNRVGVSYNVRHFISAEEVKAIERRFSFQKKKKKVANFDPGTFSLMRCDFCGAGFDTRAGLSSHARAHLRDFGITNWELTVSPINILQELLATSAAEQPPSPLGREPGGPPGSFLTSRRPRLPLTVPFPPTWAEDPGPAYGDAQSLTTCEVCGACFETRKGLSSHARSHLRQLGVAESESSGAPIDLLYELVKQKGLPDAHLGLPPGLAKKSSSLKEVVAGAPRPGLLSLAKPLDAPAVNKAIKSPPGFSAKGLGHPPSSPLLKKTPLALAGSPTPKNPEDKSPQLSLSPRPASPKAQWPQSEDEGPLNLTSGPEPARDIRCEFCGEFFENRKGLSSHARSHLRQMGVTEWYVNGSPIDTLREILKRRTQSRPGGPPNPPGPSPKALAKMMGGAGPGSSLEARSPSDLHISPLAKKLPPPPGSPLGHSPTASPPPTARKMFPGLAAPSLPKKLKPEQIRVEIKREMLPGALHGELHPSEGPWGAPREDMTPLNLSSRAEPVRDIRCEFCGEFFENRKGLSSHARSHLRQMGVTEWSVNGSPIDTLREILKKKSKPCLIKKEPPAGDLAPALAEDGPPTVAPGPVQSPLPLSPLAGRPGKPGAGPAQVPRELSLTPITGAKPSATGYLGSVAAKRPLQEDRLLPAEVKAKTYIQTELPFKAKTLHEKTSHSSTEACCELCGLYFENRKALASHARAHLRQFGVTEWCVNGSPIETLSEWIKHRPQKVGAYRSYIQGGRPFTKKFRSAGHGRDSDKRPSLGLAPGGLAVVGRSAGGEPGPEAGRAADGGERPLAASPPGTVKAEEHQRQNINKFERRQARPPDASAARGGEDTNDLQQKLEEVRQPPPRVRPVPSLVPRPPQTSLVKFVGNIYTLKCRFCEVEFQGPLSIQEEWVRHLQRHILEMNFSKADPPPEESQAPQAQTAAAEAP
Sequence of HiBit-WIZ fusion protein (Q96SW2 whole entry, the tested form may be a part): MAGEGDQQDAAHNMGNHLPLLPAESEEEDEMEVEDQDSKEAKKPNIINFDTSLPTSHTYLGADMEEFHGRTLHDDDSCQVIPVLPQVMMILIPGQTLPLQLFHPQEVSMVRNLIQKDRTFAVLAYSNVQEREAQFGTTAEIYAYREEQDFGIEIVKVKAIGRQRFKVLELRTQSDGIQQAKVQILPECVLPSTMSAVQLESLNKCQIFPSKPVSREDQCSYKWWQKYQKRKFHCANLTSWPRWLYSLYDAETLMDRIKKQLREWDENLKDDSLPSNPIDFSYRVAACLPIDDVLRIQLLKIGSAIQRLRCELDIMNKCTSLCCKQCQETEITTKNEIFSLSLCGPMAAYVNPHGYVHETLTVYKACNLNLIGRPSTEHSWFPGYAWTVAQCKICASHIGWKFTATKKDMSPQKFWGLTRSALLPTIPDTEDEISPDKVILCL
Sequence of HiBit-WIZ fusion protein (Q16531 whole entry partner, the tested form may be a part): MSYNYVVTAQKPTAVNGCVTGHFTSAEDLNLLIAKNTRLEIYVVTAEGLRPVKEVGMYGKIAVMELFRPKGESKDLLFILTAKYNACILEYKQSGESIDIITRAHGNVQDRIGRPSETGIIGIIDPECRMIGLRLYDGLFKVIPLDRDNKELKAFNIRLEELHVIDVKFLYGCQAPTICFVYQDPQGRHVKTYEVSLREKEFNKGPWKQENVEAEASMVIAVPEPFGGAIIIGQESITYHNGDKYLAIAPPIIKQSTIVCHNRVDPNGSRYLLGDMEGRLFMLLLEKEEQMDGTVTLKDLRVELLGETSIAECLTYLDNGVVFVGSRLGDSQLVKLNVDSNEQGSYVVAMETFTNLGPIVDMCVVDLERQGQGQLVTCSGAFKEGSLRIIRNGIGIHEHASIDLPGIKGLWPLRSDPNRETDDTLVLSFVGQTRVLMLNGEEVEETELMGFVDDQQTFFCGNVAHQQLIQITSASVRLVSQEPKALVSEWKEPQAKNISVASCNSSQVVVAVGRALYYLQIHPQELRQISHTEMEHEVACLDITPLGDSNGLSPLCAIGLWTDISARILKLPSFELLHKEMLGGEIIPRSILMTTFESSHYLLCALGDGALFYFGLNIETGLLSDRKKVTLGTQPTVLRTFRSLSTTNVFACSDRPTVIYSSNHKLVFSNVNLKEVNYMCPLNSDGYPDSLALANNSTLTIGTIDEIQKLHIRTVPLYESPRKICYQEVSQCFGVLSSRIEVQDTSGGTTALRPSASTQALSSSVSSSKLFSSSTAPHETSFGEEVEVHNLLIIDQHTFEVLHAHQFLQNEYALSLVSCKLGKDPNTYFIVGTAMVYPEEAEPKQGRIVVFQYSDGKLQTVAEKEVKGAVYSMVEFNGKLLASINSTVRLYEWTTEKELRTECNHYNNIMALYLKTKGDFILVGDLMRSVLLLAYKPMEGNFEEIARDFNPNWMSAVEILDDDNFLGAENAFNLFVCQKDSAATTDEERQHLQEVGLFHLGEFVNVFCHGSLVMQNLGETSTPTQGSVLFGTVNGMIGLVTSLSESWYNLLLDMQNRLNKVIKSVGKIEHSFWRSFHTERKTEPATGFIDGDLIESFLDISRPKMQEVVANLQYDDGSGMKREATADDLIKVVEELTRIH

As to `COc1cc(C(=O)N2CCCC[C@H]2COc2ccc3c(c2)CN(C2CCC(=O)NC2=O)C3=O)c(F)cn1` (stereo partly drawn) [Compound I-72gn], the Dmax was 26.4%, the remaining activity at up to 25 µM amounted to 73.6% and the DC50 was greater than 25 µM.

Consider `Cc1onc(-c2ccccc2)c1CC(=O)N1CCCC[C@H]1COc1ccc2c(c1)CN(C1CCC(=O)NC1=O)C2=O` (stereo partly drawn) [Compound I-72gp], for which the Dmax was 14.4%, the remaining activity at up to 25 µM came to 85.6% and the DC50 was greater than 25 µM.

For the compound `Cc1nn(-c2ccccc2)c(C)c1C(=O)N1CCCC[C@H]1COc1ccc2c(c1)CN(C1CCC(=O)NC1=O)C2=O` (stereo partly drawn) [Compound I-72gs], the Dmax was 57.9%, the remaining activity at up to 25 µM came out at 42.1% and the DC50 amounted to 7.39 µM.

Turning to `C[C@H](CC(=O)N1CCCC[C@H]1COc1ccc2c(c1)CN(C1CCC(=O)NC1=O)C2=O)c1ccccc1` (stereo partly drawn) [Compound I-72gu], the Dmax is 0.2%, the remaining activity at up to 25 µM was 99.8% and the DC50 was greater than 25 µM.

In the case of `CCn1cc(C(=O)N2CCCC[C@H]2COc2ccc3c(c2)CN(C2CCC(=O)NC2=O)C3=O)c(C)n1` (stereo partly drawn) [Compound I-72gw], the Dmax turned out to be 19.1%, the remaining activity at up to 25 µM worked out at 80.9% and the DC50 is greater than 25 µM.

In the case of `Cc1nnc(-c2ccc(C(=O)N3CCCC[C@H]3COc3ccc4c(c3)CN(C3CCC(=O)NC3=O)C4=O)cc2)o1` (stereo partly drawn) [Compound I-72gy], the Dmax stood at 44.1%, the remaining activity at up to 25 µM is 55.9% and the DC50 was greater than 25 µM.

As to `Cn1nccc1-c1cccc(C(=O)N2CCCC[C@H]2COc2ccc3c(c2)CN(C2CCC(=O)NC2=O)C3=O)c1` (stereo partly drawn) [Compound I-72gz], the Dmax is 13.7%, the remaining activity at up to 25 µM is 86.3% and the DC50 is greater than 25 µM.

As to `O=C1CCC(N2Cc3cc(OC[C@@H]4CCCCN4C(=O)c4cccc(N5CCCC5=O)c4)ccc3C2=O)C(=O)N1` (stereo partly drawn) [Compound I-72hf], the Dmax turned out to be 6.8%, the remaining activity at up to 25 µM turned out to be 93.2% and the DC50 was greater than 25 µM.

In the case of `Cc1cc(O)cc(C(=O)N2CCCC[C@H]2COc2ccc3c(c2)CN(C2CCC(=O)NC2=O)C3=O)c1` (stereo partly drawn) [Compound I-72hi], the Dmax worked out at 13.8%, the remaining activity at up to 25 µM worked out at 86.2% and the DC50 was greater than 25 µM.

With `CC(C)(C)c1cc(CC(=O)N2CCCC[C@H]2COc2ccc3c(c2)CN(C2CCC(=O)NC2=O)C3=O)on1` (stereo partly drawn) [Compound I-72hj], the Dmax was determined as 0.7%, the remaining activity at up to 25 µM was found to be 99.3% and the DC50 is greater than 25 µM.

For the compound `COc1ccc(CC(=O)N2CCCC[C@H]2COc2ccc3c(c2)CN(C2CCC(=O)NC2=O)C3=O)cn1` (stereo partly drawn) [Compound I-72hk], the Dmax amounted to 9.2%, the remaining activity at up to 25 µM is 90.8% and the DC50 was greater than 25 µM.

On to `O=C1CCC(N2Cc3cc(OC[C@@H]4CCCCN4C(=O)c4ccc5nccnc5c4)ccc3C2=O)C(=O)N1` (stereo partly drawn) [Compound I-72hq], for which the Dmax turned out to be 13.3%, the remaining activity at up to 25 µM was 86.7% and the DC50 is greater than 25 µM.

Take `O=C1CCC(N2Cc3cc(OC[C@@H]4CCCCN4C(=O)c4cccc(OC(F)F)c4)ccc3C2=O)C(=O)N1` (stereo partly drawn) [Compound I-72hx]: the Dmax was 5.1%, the remaining activity at up to 25 µM was found to be 94.9% and the DC50 is greater than 25 µM.

For the compound `Cn1ccc(-c2cccc(C(=O)N3CCCC[C@H]3COc3ccc4c(c3)CN(C3CCC(=O)NC3=O)C4=O)c2)n1` (stereo partly drawn) [Compound I-72id], the Dmax was 11%, the remaining activity at up to 25 µM worked out at 89% and the DC50 is greater than 25 µM.

With `CN1CCOc2cc(C(=O)N3CCCC[C@H]3COc3ccc4c(c3)CN(C3CCC(=O)NC3=O)C4=O)cnc21` (stereo partly drawn) [Compound I-72ij], the Dmax is 68.7%, the remaining activity at up to 25 µM amounted to 31.3% and the DC50 was determined as 2.77 µM.

Regarding `Cn1nc(C(=O)N2CCCC[C@H]2COc2ccc3c(c2)CN(C2CCC(=O)NC2=O)C3=O)cc1-c1ccccc1` (stereo partly drawn) [Compound I-72ir], the Dmax is 35.7%, the remaining activity at up to 25 µM is 64.3% and the DC50 is greater than 25 µM.

With `COc1cc(OC)nc(C(=O)N2CCCC[C@H]2COc2ccc3c(c2)CN(C2CCC(=O)NC2=O)C3=O)n1` (stereo partly drawn) [Compound I-72is], the Dmax was found to be 0.9%, the remaining activity at up to 25 µM stood at 99.1% and the DC50 was greater than 25 µM.

On to `CCN1CCC[C@@H](C(=O)N2CCCC[C@H]2COc2ccc3c(c2)CN(C2CCC(=O)NC2=O)C3=O)C1` (stereo partly drawn) [Compound I-72it], for which the Dmax was 5.9%, the remaining activity at up to 25 µM was found to be 94.1% and the DC50 is greater than 25 µM.

On to `Cc1cc(-n2c(C)cc(C(=O)N3CCCC[C@H]3COc3ccc4c(c3)CN(C3CCC(=O)NC3=O)C4=O)c2C)no1` (stereo partly drawn) [Compound I-72iu], for which the Dmax was found to be 71.7%, the remaining activity at up to 25 µM was 28.3% and the DC50 was 2 µM.

Take `O=C1CCC(N2Cc3cc(OC[C@@H]4CCCCN4C(=O)C45CC(F)(C4)C5)ccc3C2=O)C(=O)N1` (stereo partly drawn) [Compound I-72iv]: the Dmax was determined as 2.2%, the remaining activity at up to 25 µM amounted to 97.8% and the DC50 was greater than 25 µM.

Regarding `O=C1CCC(N2Cc3cc(OC[C@@H]4CCCCN4C(=O)c4[nH]nc5c4CCCC5)ccc3C2=O)C(=O)N1` (stereo partly drawn) [Compound I-72ix], the Dmax stood at 13%, the remaining activity at up to 25 µM stood at 87% and the DC50 is greater than 25 µM.

Turning to `O=C1CCC(N2Cc3cc(OC[C@@H]4CCCCN4C(=O)c4cccc5cnccc45)ccc3C2=O)C(=O)N1` (stereo partly drawn) [Compound I-72j], the Dmax came out at 21.5%, the remaining activity at up to 25 µM is 78.5% and the DC50 was greater than 25 µM.

`O=C1CCC(N2Cc3cc(OC[C@@H]4CCCCN4C(=O)CCn4c(=O)oc5ccccc54)ccc3C2=O)C(=O)N1` (stereo partly drawn) [Compound I-72jb]: the Dmax worked out at 0.3%, the remaining activity at up to 25 µM came to 99.7% and the DC50 is greater than 25 µM.

Turning to `CCc1ncc(C(=O)N2CCCC[C@H]2COc2ccc3c(c2)CN(C2CCC(=O)NC2=O)C3=O)s1` (stereo partly drawn) [Compound I-72jf], the Dmax was determined as 34.2%, the remaining activity at up to 25 µM is 65.8% and the DC50 was greater than 25 µM.

In the case of `CN(C)CC(=O)N1CCCC[C@H]1COc1ccc2c(c1)CN(C1CCC(=O)NC1=O)C2=O` (stereo partly drawn) [Compound I-72jk], the Dmax came out at 7.2%, the remaining activity at up to 25 µM was 92.8% and the DC50 is greater than 25 µM.

With `O=C1CCC(N2Cc3cc(OC[C@@H]4CCCCN4C(=O)CN4CCCCC4)ccc3C2=O)C(=O)N1` (stereo partly drawn) [Compound I-72jq], the Dmax came out at 11.7%, the remaining activity at up to 25 µM stood at 88.3% and the DC50 was greater than 25 µM.

With `CC(C)Oc1cccc(C(=O)N2CCCC[C@H]2COc2ccc3c(c2)CN(C2CCC(=O)NC2=O)C3=O)c1` (stereo partly drawn) [Compound I-72ju], the Dmax is 14.5%, the remaining activity at up to 25 µM came out at 85.5% and the DC50 was greater than 25 µM.

With `O=C1CCC(N2Cc3cc(OC[C@@H]4CCCCN4C(=O)c4ccccc4Cn4cncn4)ccc3C2=O)C(=O)N1` (stereo partly drawn) [Compound I-72jx], the Dmax came to 6.1%, the remaining activity at up to 25 µM was found to be 93.9% and the DC50 is greater than 25 µM.

Take `CC(C)Oc1ccccc1C(=O)N1CCCC[C@H]1COc1ccc2c(c1)CN(C1CCC(=O)NC1=O)C2=O` (stereo partly drawn) [Compound I-72jy]: the Dmax was 11.3%, the remaining activity at up to 25 µM was 88.7% and the DC50 is greater than 25 µM.

Turning to `O=C1CCC(N2Cc3cc(OC[C@@H]4CCCCN4C(=O)c4ccnnc4)ccc3C2=O)C(=O)N1` (stereo partly drawn) [Compound I-72kc], the Dmax came out at 9.4%, the remaining activity at up to 25 µM is 90.6% and the DC50 was greater than 25 µM.

For the compound `O=C1CCC(N2Cc3cc(OC[C@@H]4CCCCN4C(=O)Cc4cscn4)ccc3C2=O)C(=O)N1` (stereo partly drawn) [Compound I-72m], the Dmax worked out at 8.4%, the remaining activity at up to 25 µM worked out at 91.6% and the DC50 was greater than 25 µM.

For `Cc1nc(C(F)(F)F)ccc1C(=O)N1CCCC[C@H]1COc1ccc2c(c1)CN(C1CCC(=O)NC1=O)C2=O` (stereo partly drawn) [Compound I-72n], the Dmax came out at 23.4%, the remaining activity at up to 25 µM worked out at 76.6% and the DC50 is greater than 25 µM.

Turning to `CCc1noc(CC)c1C(=O)N1CCCC[C@H]1COc1ccc2c(c1)CN(C1CCC(=O)NC1=O)C2=O` (stereo partly drawn) [Compound I-72s], the Dmax was 78.2%, the remaining activity at up to 25 µM is 21.8% and the DC50 stood at 0.962 µM.

With `CCCCCc1ccc(C(=O)N2CCCC[C@H]2COc2ccc3c(c2)CN(C2CCC(=O)NC2=O)C3=O)cc1` (stereo partly drawn) [Compound I-72t], the Dmax was 69.9%, the remaining activity at up to 25 µM amounted to 30.1% and the DC50 came out at 1.47 µM.

Take `N#CCCN1CCN(CC(=O)N2CCCC[C@H]2COc2ccc3c(c2)CN(C2CCC(=O)NC2=O)C3=O)CC1` (stereo partly drawn) [Compound I-72x]: the Dmax was 0%, the remaining activity at up to 25 µM came out at 100% and the DC50 was greater than 25 µM.

`N#CC1(c2cc(C(=O)N3CCCC[C@H]3COc3ccc4c(c3)CN(C3CCC(=O)NC3=O)C4=O)ccn2)CC1` (stereo partly drawn) [Compound I-72y]: the Dmax stood at 2.9%, the remaining activity at up to 25 µM was determined as 97.1% and the DC50 was greater than 25 µM.

For `COc1ccccc1C(=O)N1CCC[C@@H]1COc1ccc2c(c1)CN(C1CCC(=O)NC1=O)C2=O` (stereo partly drawn) [Compound I-83, 3-(5-(((R)-1-(2-methoxybenzoyl)pyrrolidin-2-yl)methoxy)-1-oxoisoindolin-2-yl)piperidine-2,6-dione], the Dmax amounted to 16.8%, the remaining activity at up to 25 µM was found to be 83.2% and the DC50 was greater than 25 µM.

Take `O=C1CCC(N2Cc3cc(OC[C@@H]4CC(F)(F)CN4)ccc3C2=O)C(=O)N1` (stereo partly drawn) [Compound I-84, 3-(5-(((S)-4,4-difluoropyrrolidin-2-yl)methoxy)-1-oxoisoindolin-2-yl)piperidine-2,6-dione]: the Dmax amounted to 21.2%, the remaining activity at up to 25 µM came out at 78.8% and the DC50 was greater than 25 µM.
